# Reference: patent US8993320B2, “Culture method to obtain and maintain a pure or enriched population of mammalian neural stem cells and/or neural/progenitor cells that are prone to differentiate into oligodendrocyte-lineage cells in vitro” (priority 2011, dated 2015)
# Legend:
# Assay type in all cases: cell-based, human
# HFSC cells [1] = experiment: Expansion of HFSC cells with growth factors and supplements (live cell count); settings: for effect on expansion rate: either 50 μM 1-thioglycerol added or PDGF-AA increased to 100 ng/ml (not both), with 10 ng/ml bFGF+10 ng/ml IGF-1, passage 5; for effect on cell status (vacuoles, cell number): supplement to DMEM/F12 with glutamine, pyruvate, B27, 1% NEAA, 1 mM N-acetyl-cysteine, 55 μM β-mercaptoethanol, data not shown; for concentration at which expansion rate / response is saturated: established cell line #2b
# Method: FIG. 4 illustrates the expansion rate of HFSC cells (cell line #2b) in the presence of different combinations of growth factors: (1): 20 ng/ml PDGF-AA+10 ng/ml bFGF; (2): 20 ng/ml PDGF-AA+10 ng/ml bFGF+5 ng/ml NT-3; (3): 20 ng/ml PDGF-AA+10 ng/ml bFGF+10 ng/ml IGF-1; (4): 20 ng/ml PDGF-AA+10 ng/ml bFGF+5 ng/ml NT-3+10 ng/ml IGF-1. The cells were harvested at day 11 of passage 3 (P3D11) and number of live cells in each condition was counted. Then, they were passaged in the same condition that was used at passage 3 at the same cell density. The cells were harvested at day 8 of passage 4 (P4D8) and number of live cells in each condition was counted (these cells were harvested before they became sub-confluent because they started forming spheres). […] Condition (3) was effective at both passages. FIG. 5 illustrates the effects of high dose of PDGF-AA (100 ng/ml) and 1-thioglycerol on the proliferation of HFSC cells (cell line #2b); cultured in HFSCM1 medium in the presence of the following combinations of growth factors: (1): 20 ng/ml PDGF-AA+10 ng/ml bFGF+10 ng/ml IGF-1; (2): 20 ng/ml PDGF-AA+10 ng/ml bFGF+10 ng/ml IGF-1+50 μM 1-thioglycerol; (3): 100 ng/ml PDGF-AA+10 ng/ml bFGF+10 ng/ml IGF-1; (4): 100 ng/ml PDGF-AA+10 ng/ml bFGF+10 ng/ml IGF-1+50 μM 1-thioglycerol; (5): 100 ng/ml PDGF-AA+10 ng/ml bFGF+50 μM 1-thioglycerol. The cells were harvested at day 7 of passage 5 (these cells were harvested before they became sub-confluent because they started forming spheres as they did at passage 4) and number of live cells in each condition was counted. The combination of 20 ng/ml PDGF-AA+10 ng/ml bFGF was also tested, but the recovered cell number was too low to evaluate (less than 1×10^4 cells which was under the countable range) and its data was eliminated from this figure. The condition (1) could expand cells at passage 3 but couldn't expand cells at passage 5. […] When the addition of 50 μM 1-thioglycerol and the increase of PDGF-AA concentration to 100 ng/ml were combined [condition (4)], the cell expansion rate improved dramatically and the cells could be expanded successfully. […] The cell “expansion rate” refers to the cell number on a particular date divided by the initial cell number at the start of culture. Human 15-week fetal spinal cord was dissected from the spinal column, with the meninges and peripheral nerves removed. The tissue then was dissociated with Accutase and washed and cells obtained from human fetal spinal cord were placed in a culture vessel containing the following growth medium: DMEM/F12 containing 2.5 mM glutamine and 15 mM HEPES, 2% B27 supplement (Invitrogen™), 1% NEAA, 1.5 mM pyruvate (Invitrogen™), 55 μM β-mercaptoethanol (Invitrogen™), 1 mM N-acetyl-L-cysteine (Sigma-Aldrich™), 20 ng/ml PDGF-AA (R&D SYSTEMS™, Inc., Minneapolis, Minn., USA) and 10 ng/ml bFGF (R&D SYSTEMS™). Cells were then placed in an incubator maintained at 37° C., 5% O2, and 5% CO2. bFGF (10 ng/ml) was added daily to the culture medium. Medium was changed every 2-3 days during passage. Based on the preliminary experiments, growing cells were not so many in the presence of PDGF-AA and bFGF and many cells stopped proliferating or died within a few weeks. […] To remove cells that are not responsive to PDGF-AA and bFGF, cells were cultured in an ultra-low adhesion culture plate ([…] Inc., Corning, N.Y., USA). […] Spheres were collected at lower speed of centrifugation (300 rpm for collecting spheres vs. 1,000 rpm for collecting single cells) for medium change and passaging. After 9 days, cells were harvested and passaged onto poly-ornithine-coated culture vessels. After this period, cells were passaged every 7-14 days. […] In addition, the cells began to appear unhealthy, forming vacuoles in their cytoplasm. As mentioned in Example 1, inclusion of PDGF-AA and bFGF in the culture medium supported adequate growth of the HFSC cells initially, but the proliferation rate slowed after 2 passages. […]
# HFSC cells [2] = experiment: Differentiation of HFSC cells in serum-free medium (GD3/O4 staining, morphology)
# Method: FIG. 7 depicts spontaneous differentiation of HFSC cells in serum-free medium in slides A-F. Slides A and B are phase contrast images taken with an inverted microscope showing the morphological change of HFSC cells (cell line #2b) at passage 12, day 9 (FIG. 7, slides A & B) after being cultured in HFSCM1 medium supplemented with 20 ng/ml PDGF-AA, 10 ng/ml bFGF, 10 ng/ml IGF-1 and 50 μM 1-thioglycerol (FIG. 7, slide A) or without 1-thioglycerol (FIG. 7, slide B). HFSC cells were differentiated spontaneously without replenishing bFGF between changing medium. Even in the same condition, HFSC cells didn't differentiate if bFGF was replenished everyday and seemed to grow slowly. […] The ratio of oligodendrocyte progenitor cells and other cell types to differentiated cells (oligodendrocyte progenitor cells plus other cell types) were calculated and shown in FIG. 15, slide E. Oligodendrocyte progenitor cell was 99.1%±0.56% of differentiated cells whereas other cell types were 0.9%±0.56% of differentiated cells. […]
# HFSC cells [3] = experiment: Expansion of HFSC cells with growth factors and supplements (live cell count); settings: higher concentration of IGF-1 (50-500 ng/ml)
compound,measurement,setting,value
"OCC(O)CS (stereo not shown) [1-thioglycerol, reference compound]",effect on expansion rate,HFSC cells [1],very little positive effect
"CC(=O)N[C@@H](CS)C(=O)O [N-acetyl-cysteine, reference compound]","effect on cell status (vacuoles, cell number)",HFSC cells [1],seemed to improve the cells' status
"Nc1ncnc2c1nc(Sc1ccc(Cl)cc1)n2[C@@H]1O[C@@H]2COP(=O)(O)O[C@H]2[C@H]1O [pCPT-cAMP, reference compound]",induction of differentiation,"HFSC cells [2]; 100 μM, high density (3×10^4 cells/cm^2)",could induce differentiation
"OCCS [β-mercaptoethanol, reference compound]","effect on cell status (vacuoles, cell number)",HFSC cells [1],seemed to improve the cells' status
basic fibroblast growth factor [bFGF],concentration at which expansion rate / response is saturated,HFSC cells [1],20 ng/mL
insulin-like growth factor-1 [IGF-1],concentration at which expansion rate / response is saturated,HFSC cells [1],40 ng/mL
same,differentiated cells seen,HFSC cells [3],around 1%
platelet derived growth factor-AA [PDGF-AA],effect on expansion rate,HFSC cells [1],very little positive effect
same,concentration at which expansion rate / response is saturated,HFSC cells [1],10 to 20 ng/mL
same,effect on spontaneous differentiation,HFSC cells [2]; 40 ng/ml or higher PDGF-AA,blocked to differentiate
